Patent US7238725B2, “Tricyclic compounds useful for the treatment of inflammatory and allergic disorders: process for their preparation and pharmaceutical compositions containing them” (Glenmark Pharmaceuticals Ltd., priority 2002, dated 2007)

Tested on: not given
Assay: not given
Conditions: not given

Compound	melting point
O=C(Nc1cccnc1)c1ccc(OC(F)F)c2oc3ccc(C(F)(F)F)cc3c12 [Example 16, N-(pyrid-3-yl)-4-difluoromethoxy-8-trifluoromethyl dibenzo[b,d]furan-1-carboxamide]	235 to 236 °C
COc1ccc(S(=O)(=O)Nc2c(Cl)cccc2Cl)c2c1[nH]c1ccccc12 [Example 77, N4-(2,6-Dichlorophenyl)-1-methoxy-9H-4-carbazolsulphonamide]	201 to 205 °C
O=C(Nc1ccccn1)c1ccc(OC(F)F)c2oc3ccc(C(F)(F)F)cc3c12 [Example 18, N-(pyrid-2-yl)-4-difluoromethoxy-8-trifluoromethyl dibenzo[b,d]furan-1-carboxamide]	169 to 170 °C

The remaining lines, values ahead:

melting point	Compound
242 to 244 °C	COc1ccc(S(=O)(=O)Nc2c(Cl)cncc2Cl)c2c1oc1ccccc12 [Example 54, N-(3,5-dichloropyrid-4-yl)-4-methoxy dibenzo[b,d]furan-1-sulfonamide]
176 °C (dec.)	COc1c(C(=O)Nc2c(Cl)cncc2Cl)ccc2c1oc1ccccc12 [Example 52, N-(3,5-dichloropyrid-4-yl)-4-methoxy dibenzo[b,d]furan-3-carboxamide]
269 to 270 °C (dec.)	O=C(Nc1c(Cl)cncc1Cl)c1ccc(OCc2ccccc2)c2oc3ccccc3c12 [Example 37, N-(3,5-dichloropyrid-4-yl)-4-benzyloxy dibenzo[b,d]furan-1-carboxamide]

Target: PDE4 enzyme
Assay: Inhibition of Phosphodiesterase Enzymes (PDE4), [3H]cAMP hydrolysis
Format: biochemical
Conditions: PDE4 enzyme, 1 μM cAMP and 3H cAMP, 34° C.; read-out: IC50
Procedure: Inhibition of Phosphodiesterase Enzymes (PDE4)
In this assay, PDE4 enzyme converts [^3H] cAMP to the corresponding [^3H] 5′-AMP in proportion to the amount of PDE4 present The [^3H] 5′-AMP then was quantitatively converted to free [^3H] adenosine and phosphate by the action of snake venom 5′-nucleotidase.
The assay was performed with modification of the method of Thompson and Appleman (Biochemistry; 1971; 10; 311-316) and Schwartz and Passoneau (Proc. Natl. Acad. Sci. U.S.A. 1974; 71; 3844-3848), both references incorporated herein by reference in their entirety, at 34° C. In a 200 ul total reaction mixture, the reaction mixture contained 12.5 mM of Tris, 5 mM MgCl2, 1 μM cAMP (cold) and ^3H cAMP (0.1 uCi), (Amersham). […] Drug samples were then added in the reaction mixture (25 μl/tube). The assay was initiated by addition of enzyme mix (75 μl) and the mixture was incubated for 20 minutes at 34° C. The reaction was stopped by boiling the tubes for 2 mins at 100° C. in a water bath. After cooling on ice for 5 minutes and addition of 50 ug/reaction of 5′-nucleotidase snake venom from Crotalus atrox incubation was carried out again for 20 min. at 34° C. The unreacted substrate was separated from (^3H) Adenosine by addition of Dowex AG 1-X8 (Biorad Lab), (400 ul) which was prequilibrated (1:1:1) in water and ethanol. Reaction mixture was then thoroughly mixed, placed on ice for 15 minutes, vortexed and centrifuged at 14,000 r.p.m. for 2 mins. After centrifugation, a sample of the supernatant was taken and added in 24 well optiplates containing Scintillant (1 ml) and mixed well. The samples in the plates were then determined for radioactivity in a Top Counter and the PDE4 activity was estimated. PDE4 enzyme was present in quantities that yield <30% total hydrolysis of substrate (linear assay conditions).
Results were expressed as percent inhibition (IC50) in nM concentrations. The IC50 values were determined from the concentration curves by nonlinear regression analysis.
The IC50 value for the compound examined was determined from concentration-response curves in which varying range of concentrations were considered as shown in table 1

Compound	IC50
COc1ccc(Cn2c3ccc(Cl)cc3c3c(C(=O)Nc4c(Cl)c[n+]([O-])cc4Cl)ccc(OC)c32)cc1 [Example 98, N4-(3,5-dichloro-4-pyridyl-N-oxide)-6-chloro-9-(4-methoxybenzyl)-1-methoxy-9H-4-carba-zolecarboxamide]	39.6 nM
COc1ccc(Cn2c3ccc(Cl)cc3c3c(C(=O)Nc4c(Cl)cncc4Cl)ccc(OC)c32)cc1 [Example 85, N4-(3,5-dichloro-4-pyridyl)-6-chloro-9-(4-methoxybenzyl)-1-methoxy-9H-4-carbazolecarboxamide]	8.15 nM
COc1ccc(C(=O)Nc2c(Cl)c[n+]([O-])cc2Cl)c2c3cc(Cl)ccc3n(Cc3ccc(F)cc3)c12 [Example 97, N4-(3,5-dichloro-4-pyridyl-N-oxide)-6-chloro-9-(4-fluorobenzyl)-1-methoxy-9H-4-carbazolecarboxamide]	40.3 nM
COc1ccc(C(=O)Nc2c(Cl)c[n+]([O-])cc2Cl)c2c3cc(Cl)ccc3n(CC3CCCCC3)c12 [Example 99, N4-(3,5-dichloro-4-pyridyl-N-oxide)-6-chloro-9-cyclohexylmethyl-1-methoxy-9-H-4-carbazolecarboxamide]	30.1 nM
O=C(Nc1cccnc1)c1ccc(OC(F)F)c2oc3ccccc3c12 [Example 22, N-(pyrid-3-yl)-4-difluoromethoxy dibenzo[b,d]furan-1-carboxamide]	105 nM
COc1ccc(C(=O)Nc2c(Cl)cncc2Cl)c2c3cc(Cl)ccc3n(CC3CCCCC3)c12 [Example 83, N4-(3,5-dichloro-4-pyridyl)-6-chloro-9-cyclohexylmethyl-1-methoxy-9H-4-carbazole carboxamide]	5.26 nM
COc1ccc(NS(=O)(=O)c2ccc(OC)c3sc4ccc(S(=O)(=O)N(C)C)cc4c23)cc1 [Example 115, N1-(4-methoxyphenyl)-8,N8-dimethyl-4-methoxydibenzo[b,d]thiophen-8,1-disulfonamide]	37.4 nM
COc1ccc(C(=O)Nc2ccncc2)c2c3cc(Cl)ccc3n(Cc3ccc(F)cc3)c12 [Example 93, N4-(4-pyridyl)-6-chloro-9-(4-fluorobenzyl)-1-methoxy-9H -4-carbazolecarboxamide]	161 nM
COc1ccc(C(=O)Nc2ccncc2)c2c1[nH]c1ccccc12 [Example 79, N4-(4-pyridyl)-1-methoxy-9H-4-carbazole carboxamide]	128 nM
COc1ccc(C(=O)Nc2ccncc2)c2c1oc1ccc(I)cc12 [Example 46, N-(pyrid-4-yl)-4-methoxy-8-iodo-dibenzo[b,d]furan-1-carboxamide]	36.8 nM
COc1ccc(C(=O)Nc2ccncc2)c2c3ccccc3n(Cc3ccc(F)cc3)c12 [Example 87, N4-(4-pyridyl)-9-(4-fluorobenzyl)-1-methoxy-9H-4-carbazole carboxamide]	393 nM
O=C(Nc1cc[n+]([O-])cc1)c1ccc(OC(F)F)c2oc3ccccc3c12 [Example 21, N-(pyrid-4-yl)-4-difluoromethoxy dibenzo[b,d]furan-1-carboxamide-N1-oxide]	22.6 nM
COc1ccc(C(=O)Nc2ccncc2)c2c1oc1ccc(Br)cc12 [Example 43, N-(pyrid-4-yl)-4-methoxy-8-bromo-dibenzo[b,d]furan-1-carboxamide]	61.2 nM
O=C(Nc1cccnc1)c1ccc(OCC2CC2)c2oc3ccccc3c12 [Example 29, N-(pyrid-3-yl)-4-cyclopropylmethoxy dibenzo[b,d]furan-1-carboxamide]	351 nM
COc1ccc(C(=O)Nc2ccncc2)c2c1oc1ccc([N+](=O)[O-])cc12 [Example 39, N-(pyrid-4-yl)-4-methoxy-8-nitro dibenzo[b,d]furan-1-carboxamide]	31.7 nM
O=C(Nc1ccncc1)c1ccc(OCC2CC2)c2oc3ccccc3c12 [Example 27, N-(pyrid-4-yl)-4-cyclopropylmethoxy dibenzo[b,d]furan-1-carboxamide]	73.5 nM
O=C(Nc1ccncc1)c1ccc(OC(F)F)c2oc3ccccc3c12 [Example 20, N-(pyrid-4-yl)-4-difluoromethoxy dibenzo[b,d]furan-1-carboxamide]	15.8 nM
O=C(Nc1ccc[n+]([O-])c1)c1ccc(OC(F)F)c2oc3ccccc3c12 [Example 23, N-(pyrid-3-yl)-4-difluoromethoxy dibenzo[b,d]furan-1-carboxamide-N1-oxide]	147 nM
O=C(Nc1cc[n+]([O-])cc1)c1ccc(OC(F)F)c2oc3ccc(C(F)(F)F)cc3c12 [Example 15, N-(pyrid-4-yl)-4-difluoromethoxy-8-trifluoromethyl dibenzo[b,d]furan-1-carboxamide-N1-oxide]	67.3 nM

Continued, values first:

IC50	Compound
57 nM	CCOc1ccc(C(=O)Nc2c(Cl)c[n+]([O-])cc2Cl)c2c1oc1ccccc12 [Example 68, 3,5-Dichloro-4-(4-ethoxydibenzo[b,d]furan-1-ylcarboxamido)pyridine-N-oxide]
129 nM	COc1ccc(C(=O)Nc2c(Cl)cncc2Cl)c2c3ccccc3n(Cc3ccccc3)c12 [Example 88, N4-(3,5-dichloro-4-pyridyl)-9-benzyl-1-methoxy-9H-4-carbazolecarboxamide]
21.5 nM	O=C(Nc1c(Cl)cncc1Cl)c1ccc(OC(F)F)c2oc3ccc(N4CCCC4=O)cc3c12 [Example 121, N-(3,5-dichloropyrid-4-yl)-4-difluoromethoxy-8-(pyrrolidine-2-one-1-yl)-dibenzo[b,d]furan-1-carboxamide]
78.9 nM	COc1ccc(C(=O)Nc2c(Cl)cncc2Cl)c2c3cccc(Cl)c3n(Cc3ccc(F)cc3)c12 [Example 95, N4-(3,5dichloro-4pyridyl)-8-chloro-9-(4-Fluorobenzyl)-1-methoxy-9H-4-carbazole carboxamide]
19.6 nM	COc1ccc(C(=O)Nc2c(Cl)cncc2Cl)c2c3cc(Cl)ccc3n(Cc3ccccc3)c12 [Example 82, N4-(3,5-dichloro-4-pyridyl)-9-benzyl-6-chloro-1-methoxy-9H-4-carbazole carboxamide]
72 nM	COc1ccc(C(=O)Nc2c(Cl)cncc2Cl)c2c3ccccc3n(Cc3ccc(F)cc3)c12 [Example 86, N4-(3,5-dichloro-4-pyridyl)-9-(4-fluorobenzyl)-1-methoxy-9H-4-carbazole carboxamide]
14.6 nM	COc1ccc(C(=O)Nc2c(Cl)cncc2Cl)c2c3cc(Cl)ccc3n(Cc3ccc(F)cc3)c12 [Example 84, N4-(3,5-dichloro-4-pyridyl)-6-chloro-9-(4-fluorobenzyl)-1-methoxy-9H-4-carbazole carboxamide]
86.4 nM	CCOc1ccc(C(=O)Nc2c(Cl)cncc2Cl)c2c1oc1ccccc12 [Example 60, 3,5-Dichloro-4-(4-ethoxydibenzo[b,d]furan-1-ylcarboxamido)pyridine]
281 nM	COc1ccc(C(=O)Nc2c(Cl)cncc2Cl)c2c3cccc(Cl)c3n(CC3CCCCC3)c12 [Example 94, N4-(3,5dichloro-4-pyridyl)-8-chloro-9-cyclohexylmethyl-1-methoxy-9H-4-carbazole carboxamide]
8.68 nM	COc1ccc(C(=O)Nc2ccncc2)c2c1oc1ccccc12 [Example 3, N-(pyrid-4-yl)-4-methoxy dibenzo[b,d]furan-1-carboxamide]
